From patent US20210238225A1, “PEPTIDOMIMETIC INHIBITORS OF THE PEPTIDYL-PROLYL CIS/TRANS ISOMERASE (PIN1)” (DANA-FARBER CANCER INSTITUTE, INC., priority 2018, published 2021)
“Also recorded” adds a separate entry of the source. Read-outs that look alike come from different tables or passages of the source. Non-standard residues stand in square brackets, D forms with d. Residues, ends and D or L forms follow the SMILES beside them. *: point of attachment. NMeF = CN[C@@H](Cc1ccccc1)C(=O)O; Cit = NC(=O)NCCC[C@H](N)C(=O)O; Pip = O=C(O)[C@@H]1CCCCN1; ClAc = O=C(CCl)*

What was measured:
[1] = test system: phosphoRb (S780), phosphoRb (S801/811), β-Catenin, cJun, cMyc and phosphoH3 (S10); experiment: Downstream signaling, western blot in TNBC MDA-MB-231 cells; type: cell-based; details: 10 μM, 1, 2, 4, 6 and 8 hours
Protocol: TNBC MDA-MB-231 cells were plated in 6-well plates at a density of 100,000 cells per well in 2 mL media. The day after plating, cells were treated with the indicated concentration of compound 18, and harvested at 1, 2, 4, 6, and 8 hours. To harvest, the cells were washed with PBS, and then lysed in RIPA Lysis Buffer (Thermo Scientific™, cat. #89900, with protease inhibitors (Roche). Lysates were clarified by centrifugation (14,000 rpm for 15 min at 4° C.), and protein concentrations were determined by BCA. The samples were normalized and prepared in 4× LDS+10% β-mercaptoethanol, and were then boiled at 95° C. for 5 minutes. Lysates were probed for specified proteins by western blotting using the Bolt system (Life Technologies™).

PATU-8988T cells = experiment: Time-dependent antiproliferative activity (CellTiter-Glo); type: cell-based; details: Day 0, 2, 4, 6 and 8
Protocol: PATU-8988T cells were plated at a density of 100 cells per well in 100 μL media in a 96-well white clear bottom plate (Corning cat #3903), with at least one plate per time point (Day 0, 2, 4, 6 and 8). Cells were treated the day after plating with 1 μL of DMSO or Compound 18 to give the indicated concentrations, and were then incubated at 37° C. 5% CO2. Every 48 hours, the media was aspirated and replaced with fresh media containing fresh compound or DMSO. When the indicated time points had been reached, cell viability was evaluated using the CellTiter-Glo Luminescent Cell Viability Assay (Promega cat #G7570) according to the manufacturer's standards, measuring luminescence using an Envision plate-reader. The Day 0 time point plates were read the day after plating, prior to compound treatment. N=3 biological replicates were used for each treatment condition.

Pin1 (GST-Pin1) = Pin1 (GST-Pin1) (Homo sapiens, UniProt Q13526); experiment: Fluorescence polarization (FP) assay, binding to Pin1
Pin1 (GST-Pin1), sequence (Q13526 whole entry): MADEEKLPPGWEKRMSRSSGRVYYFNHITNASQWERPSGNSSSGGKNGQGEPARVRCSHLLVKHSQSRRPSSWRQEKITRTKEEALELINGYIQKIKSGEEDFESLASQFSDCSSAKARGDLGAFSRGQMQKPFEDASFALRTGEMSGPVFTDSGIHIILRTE

Pin1 [2] = molecular target: T1, Pin1 (Homo sapiens, UniProt Q13526); experiment: Cellular target engagement, live cell biotin competition assay in TNBC MDA-MB-231 cells; type: cell-based; set-up: endogenous in cells; host or cells: MDA-MB-231
T1 sequence (Q13526 whole entry): as above
Protocol: TNBC MDA-MB-231 cells were plated in 10 cm plates with 2.5 million cells per plate in 6 mL of media. The day after plating, cells were treated with the indicated concentrations of compound 18 for 5 hours. The cells were washed 2× with 0.9% NaCl (1 mL per 10 cm plate), and collected by scraping with a cell scraper. Cells were lysed in lysis buffer (50 mM Hepes pH 7.5, 150 mM NaCl, 1 mM EDTA, 10% v/v glycerol, 0.5% v/v […], protease inhibitors (Roche)) using 210 μL of cell lysis buffer per 10 cm plate of cells. After clarifying by centrifugation (14,000 rpm for 15 min at 4° C.), 5 μL of each lysate sample was combined with 5 μL of 2× LDS+10% β-mercaptoethanol, boiled for 5 minutes, and set aside for the input loading control (later to be loaded directly in the gel). Then, 200 μL of each lysate was then incubated with 1 μM of compound 2-32 (biotin probe compound) for 1 hour at 4° C. Lysates were then incubated with streptavidin agarose resin (30 μL of 1:1 beads: lysis buffer slurry) (Thermo Scientific™, cat. #20349) for 2 hours at 4° C. Beads were washed 4 times with 500 μL of washing buffer (50 mM Hepes, pH7.5, 10 mM NaCl, 1 mM EDTA, 10% glycerol), then pelleted by centrifugation and dried. The beads were then boiled at 95° C. for 5 minutes in 30 μL of 2× LDS+10% β-mercaptoethanol. Lysates were probed for specified proteins by western blotting using the Bolt system (Life Technologies™).

Pin1 Cys 113 = Pin1 Cys 113 (Homo sapiens, UniProt Q13526); experiment: Covalent labeling (intact MS); type: binding
Pin1 Cys 113, sequence (Q13526 whole entry): as above
Protocol: 5 μg of purified Pin1 protein in 50 μL of 20 mM HEPES pH 7.5 and 75 mM NaCl was incubated with 5 μM of respective Pin1 inhibitors for 0-3 hr. A Shimadzu XR HPLC was used to inject the entire sample onto a self-packed reverse-phase column (1/32 in outer diameter×500 μm inner diameter, 5 cm of POROS 50R2 resin). After desalting, protein was eluted with an HPLC gradient (0%-100% B in 4 min, A=0.2 M acetic acid in water, B=0.2 M acetic acid in acetonitrile, flow rate=10 μl/min) into a LTQ XL mass spectrometer (Thermo Fisher Scientific, San Jose, Calif., USA). LTQ XL MS spectra were acquired in centroid mode using the electron multipliers for ion detection. Mass spectra were deconvoluted using MagTran1.03b2 software (Zhang and Marshall, J. Am. Soc. Mass Spectrom. 9:225-233 (1998)).

Pin1 [3] = molecular target: T1, Pin1; experiment: Lysate target engagement (pull down with biotinylated probes; competition assay); type: binding; set-up: endogenous in cells; host or cells: MDA-MB-231
Outline: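 MDA-MB-231 (TNBC) lysates, 500 μg protein, incubated 1 h at 4 °C with compound, then streptavidin pull-down 2 h at 4 °C; western blot read-out. Competition format: lysate pre-incubated overnight at 4 °C with competitor, then 1 μM desthiobiotin probe for 1 h before pull-down.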

## CCOC(=O)[C@H](CCCNC(N)=O)NC(=O)[C@H](Cc1c[nH]c2ccccc12)NC(=O)[C@@H]1CCCCN1C(=O)[C@H](Cc1ccccc1)N(C)C(=O)CCl [Compound 18, Ethyl (S)-2-((S)-2-((S)-1-(N-(2-chloroacetyl)-N-methyl-L-phenylalanyl)piperidine-2-carboxamido)-3-(1H-indol-3-yl)propanamido)-5-ureidopentanoate] (ClAc-[NMeF][Pip]W[Cit]-OEt)
[1]
  downstream signaling changes (FIG. 9): a decrease in phosphoRb, β-Catenin, cJun, phosphoH3 (S10), and a temporary increase in c-Myc; also recorded: induced changes in downstream signaling
PATU-8988T cells
  cell viability (FIG. 10): dose-dependent and time-dependent defects in cell viability
Pin1 (GST-Pin1); read-out: Ki quoted in figure legend, assay not named
  Ki: 20 nM
Pin1 (GST-Pin1); text and figure legend, read-out: Ki (fluorescence polarization, FIG. 1B)
  Ki: 20 nM
Pin1 [2]; TNBC MDA-MB-231 cells, 5 hours
  concentration at which cellular Pin1 is fully engaged (FIG. 7B): ≤ 5 µM
Pin1 [2]; TNBC MDA-MB-231 cells, 5 hours treatment, concentration under E7
  Cellular Target Engagement?: Yes-Complete
Pin1 [2]; TNBC MDA-MB-231 cells, read with the E6 line
  Cellular Target Engagement? concentration stated for complete engagement: at 5 μM
Pin1 [2]; preincubation of live TNBC-MDA-MB-231 cells with increasing concentrations
  live cell competition with compound 2-32 (FIG. 7B legend): outcompetes compound 2-32 for Pin1 binding
Pin1 Cys 113; 30-minute room temperature incubation at 1:1 Pin1:compound
  covalent labeling of Pin1: 100%
Pin1 Cys 113; purified Pin1 with 5 μM inhibitor, 0-3 hr
  Covalent? (In tact MS), % labeling: Yes (100%
Pin1 [3]; HEK 293 cell lysate as printed in legend
  competition with compound 2c for Pin1 (FIG. 6B legend): competes with compound 2c for binding of Pin1
Pin1 [3]; TNBC-MDA-MB-231 cell lysate, pre-incubation overnight at 4° C.
  lysate target engagement by competition with 1 μM compound 2c (FIG. 6B): potently engaged Pin1
Pin1 [3]; TNBC-MDA-MB-231 lysate, biotin/dtb probes: pull down, others: competition, concentration under E5
  Lysate Target Engagement?: Yes-
Pin1 [3]; read with the E4 line of the same compound (complete, partial, probe pull down)
  Lysate Target Engagement? concentration stated for the engagement or pull down: 500 µM
